Patent US20220125752A1, “LEVODOPA DERIVATIVE AND USE THEREOF” (UNIVERSITY OF TSUKUBA, priority 2019, published 2022)

Columns and labels:
[1] = tested on: heart, lung, liver, spleen, and kidney; design: species or system mice; details: mouse, in vivo
Experimental: After the animals were euthanized, major organs were cut out from mouse models of Parkinson's disease (PD) and L-DOPA-induced dyskinesia (LID) and fixed in a 4% paraformaldehyde solution at 4° C. for 72 hours. These tissues were then processed using an automated tissue processor (TP1020, Leica, Germany). The samples embedded in paraffin were subsequently sliced to a thickness of […] with an automatic microtome and stained with hematoxylin and eosin (H&E) as well as Masson trichrome (MT). Histological evaluation was performed by observation under an optical microscope (DP73, Olympus, Japan) and assessment of the potential toxicity of the PEG-b-P(L-DOPA(OAc)2)-Npa (or Nano^DOPA) during the treatment.

[2] = tested on: MPTP mouse model of Parkinson's disease; assay: Grid walking test, intraperitoneal treatment; format: in vivo, C57BL/6J mice; details: Day 11, after MPTP administered again; 15 mg/kg (in terms of L-DOPA) intraperitoneal for 11 days
Experimental: Male C57BL/6J mice, 15 weeks old, were used (see Chonpathompikunlert, P. (2018). BMC Complementary and Alternative Medicine, 18(103), 1 -12). […] The administration before treatment was to induce PD, and the administration after treatment was to visualize by a behavioral test. […] A grid walk test was performed as a behavioral test according to the above schedule, and the number of times the limbs of the mouse slipped into the opening was counted to test the balance ability.

[3] = tested on: MPTP mouse model of Parkinson's disease; assay: Narrow beam walk test, intraperitoneal treatment; format: in vivo, C57BL/6J mice; details: Day 7; 15 mg/kg (in terms of L-DOPA) intraperitoneal; versus MPTP-administered group
Source text: Male C57BL/6J mice, 15 weeks old, were used (see Chonpathompikunlert, P. (2018). BMC Complementary and Alternative Medicine, 18(103), 1 -12). […] The administration before treatment was to induce PD, and the administration after treatment was to visualize by a behavioral test. […] In this test, motor ability can be accessed by measuring the time until a mouse passes through a narrow bridge with a width of 1 cm, and the time increases with Parkinson's disease.

[4] = Body weight change and health during treatment; format: in vivo, C57BL/6J mice; details: 15 mg/kg (in terms of L-DOPA) intraperitoneal for 11 days
Experimental: Male C57BL/6J mice, 15 weeks old, were used (see Chonpathompikunlert, P. (2018). BMC Complementary and Alternative Medicine, 18(103), 1 -12). A method of intraperitoneally administering 1-methyl-4-phenyl -1,2,3,6-tetrahydropyridine (MPTP) was used, but MPTP was administered before and after treatment with intraperitoneal administration of nanoparticles because of high recovery ability of mice themselves. The administration before treatment was to induce PD, and the administration after treatment was to visualize by a behavioral test.
The mice were randomly divided into the following four groups (n=4). • 1) Saline, for 12 days • 2) MPTP 20 mg/kg, 4 times daily, every 2 hours+saline, for 11 days+MPTP 30 mg/kg, for 3 days • 3) MPTP 20 mg/kg, 4 times daily, every 2 hours+L-DOPA 15 mg/kg, for 11 days+MPTP 30 mg/kg, for 3 days • 4) MPTP 20 mg/kg, 4 times daily, every 2 hours+NPs 15 mg/kg (in terms of L-DOPA), for 11 days+MPTP 30 mg/kg, for 3 days

[5] = tested on: L-DOPA-induced dyskinesia in MPTP mice; assay: Abnormal involuntary movement scale test (AIMS test); format: in vivo, C57BL/6J mice; details: Day 17; 25 mg/kg (in terms of L-DOPA) with Benserazide 12 mg/kg for 17 days
Experimental: Male C57BL/6J mice, 15 weeks old, were used (see Chonpathompikunlert, P. (2018). BMC Complementary and Alternative Medicine, 18(103), 1 -12). […] The administration before treatment was to induce PD, and the administration after treatment was to visualize by a behavioral test. […] An abnormal involuntary movement scale test (AIMS test) was performed as a behavioral test according to the above schedule, and the severity of dyskinesia was scored (0: no AIM, 1: AIM in <50%, 2: AIM in >50%, 3: continuous but stopped by stimulation, 4: continuous). Mice with a strong symptom of dyskinesia have a large score.

[6] = tested on: L-DOPA-induced dyskinesia in MPTP mice; assay: Slider test; format: in vivo, C57BL/6J mice; details: Day 17; 25 mg/kg (in terms of L-DOPA) with Benserazide 12 mg/kg for 17 days
Source text: Male C57BL/6J mice, 15 weeks old, were used (see Chonpathompikunlert, P. (2018). BMC Complementary and Alternative Medicine, 18(103), 1 -12). […] The administration before treatment was to induce PD, and the administration after treatment was to visualize by a behavioral test. […] (6) In addition, in a slider test, motor ability can be assessed by measuring the time until each mouse becomes unable to walk on a slope of 26.5 degrees or slides down, and the time is expected to be shortened with Parkinson's disease.

[7] = tested on: Parkinson's disease mouse models (MPTP); assay: Narrow beam walk test, oral administration; format: in vivo, C57BL/6J mice; details: oral L-DOPA 15 mg/kg; versus MPTP-administered group
Experimental: (§1) Male C57BL/6J mice, 15 weeks old, were used as models as in Test 2. A three-day training period was provided for the models prior to administration to familiarize them with the experimental apparatus. MPTP was administered intraperitoneally at 30 mg/kg every day for the first 5 days (sub-acute). After the administration of MPTP, oral administration of L-DOPA or Nano^DOPA (administered once daily with a tube) was started, and MPTP was administered intraperitoneally to Groups II and III on Day 9, 4 times daily, every 2 hours (acute). MPTP was also administered intraperitoneally in a similar manner to the remaining Group IV on Day 10. The catalepsy test was performed on the same day as the acute administration of MPTP. In addition, the narrow beam walk test (see Test 2 (4)) was performed 2 days after the catalepsy test. All the mice were euthanized the next day of the behavioral test. Each group described above was as follows, and the mice were randomized into the following four groups (n=8). II. MPTP 30 mg/kg, for 5 days (sub-acute)+MPTP 20 mg/kg, 4 times daily, every 2 hours (acute) MPTP 30 mg/kg, for 5 days (sub-acute)+MPTP 20 mg/kg, 4 times daily, every 2 hours (acute)+L-DOPA 15 mg/kg (oral) IV. MPTP 30 mg/kg, for 5 days (sub-acute)+MPTP 20 mg/kg, 4 times daily, every 2 hours (acute)+Nano^DOPA 1.5 mg/kg (given ad libitum) The results are shown in FIG. 21.

[8] = tested on: Parkinson's disease mouse models (MPTP); assay: Catalepsy test, oral administration; format: in vivo, C57BL/6J mice; details: L-DOPA 15 mg/kg, Nano^DOPA 1.5 mg/kg (given ad libitum), same day as acute MPTP
Experimental: as §1

Molecule	organ damage by H&E staining [1]	number of slipping in grid walking test [2]	time to pass through narrow bridge (narrow beam walk) [3]	body weight after MPTP-induced loss [4]	health damage during the administration [4]	severity of dyskinesia (AIMS observation) [5]	slider test, walking on a slope of 26.5 degrees [6]	foot slip errors in narrow beam walk test [7]	catalepsy test [8]
PEG-b-P(L-DOPA(OAc)2)	does not damage each organ at all								
N[C@@H](Cc1ccc(O)c(O)c1)C(=O)O [L-DOPA, 3,4-dihydroxy-L-phenylalanine]		no difference was observed in the L-DOPA-administered group compared to the non-treatment group	improvement in therapeutic effect were continuously and significantly observed	rapidly recovered	no noticeable health damage was observed	involuntary movements of the oral cavity and twisting of the body axis characteristic of dyskinesia were observed only in the L-DOPA-administered group	sliding down due to involuntary movements of mice was observed only in the L-DOPA-administered group	significantly suppressed	no significant difference
